Assay [1] has as its target Mitogen-activated protein kinase kinase kinase kinase 4 (Homo sapiens, UniProt O95819). In kind it is functional.
Assay [2] deals with Dual specificity tyrosine-phosphorylation-regulated kinase 1B (Homo sapiens, UniProt Q9Y463). Nature of the assay: Navigating the Kinome. Panel member name: DYRK1B. In kind it is functional.
For assay [3], the target named is Protein kinase C theta type (Homo sapiens, UniProt Q04759). The assay can be described thus: Navigating the Kinome. Panel member name: PRKCQ. It counts as functional.
Protein kinase C theta type, sequence (Q04759 whole entry): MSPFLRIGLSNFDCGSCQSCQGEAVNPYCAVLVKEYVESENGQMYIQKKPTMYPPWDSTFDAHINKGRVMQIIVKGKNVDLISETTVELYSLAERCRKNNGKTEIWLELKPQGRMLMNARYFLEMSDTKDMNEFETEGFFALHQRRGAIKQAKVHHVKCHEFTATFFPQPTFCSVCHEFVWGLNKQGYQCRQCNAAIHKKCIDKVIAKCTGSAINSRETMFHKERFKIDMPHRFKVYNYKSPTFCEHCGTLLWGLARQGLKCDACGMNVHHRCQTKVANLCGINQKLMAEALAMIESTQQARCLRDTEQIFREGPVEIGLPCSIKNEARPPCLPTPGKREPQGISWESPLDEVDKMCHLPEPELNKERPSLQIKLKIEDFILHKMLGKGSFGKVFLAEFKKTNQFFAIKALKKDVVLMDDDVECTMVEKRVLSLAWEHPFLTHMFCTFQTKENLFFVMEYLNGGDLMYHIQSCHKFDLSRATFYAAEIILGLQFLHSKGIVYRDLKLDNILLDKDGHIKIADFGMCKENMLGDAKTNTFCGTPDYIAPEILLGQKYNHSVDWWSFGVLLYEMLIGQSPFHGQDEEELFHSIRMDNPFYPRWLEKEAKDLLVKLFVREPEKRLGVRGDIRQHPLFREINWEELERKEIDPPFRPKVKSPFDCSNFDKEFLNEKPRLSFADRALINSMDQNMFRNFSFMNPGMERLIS
For assay [4], the target named is Macrophage-stimulating protein receptor (Homo sapiens, UniProt Q04912). Nature of the assay: Navigating the Kinome. Panel member name: MST1R. In kind it is functional.
Assay [5] has as its target Casein kinase I isoform alpha (Homo sapiens, UniProt P48729). It counts as functional.
For assay [6], the target named is Serine/threonine-protein kinase D3 (Homo sapiens, UniProt O94806). In kind it is functional.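 Note: determined within a kinase panel screen, with PRKCN as the panel member.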
Assay [7] deals with Proto-oncogene tyrosine-protein kinase receptor Ret (Homo sapiens, UniProt P07949). In kind it is functional.
Assay [8] has as its target cAMP-dependent protein kinase catalytic subunit PRKX (Homo sapiens, UniProt P51817). It counts as functional.
Assay [9] addresses Protein kinase C gamma type (Homo sapiens, UniProt P05129). It counts as functional.
The target of assay [10] is Inhibitor of nuclear factor kappa-B kinase subunit beta (Homo sapiens, UniProt O14920). It counts as functional.
The target in assay [11] is MAP/microtubule affinity-regulating kinase 3 (Homo sapiens, UniProt P27448). It counts as functional.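 Note: MARK3 affinity measured as one member of a kinome panel.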
MAP/microtubule affinity-regulating kinase 3, sequence (P27448 whole entry): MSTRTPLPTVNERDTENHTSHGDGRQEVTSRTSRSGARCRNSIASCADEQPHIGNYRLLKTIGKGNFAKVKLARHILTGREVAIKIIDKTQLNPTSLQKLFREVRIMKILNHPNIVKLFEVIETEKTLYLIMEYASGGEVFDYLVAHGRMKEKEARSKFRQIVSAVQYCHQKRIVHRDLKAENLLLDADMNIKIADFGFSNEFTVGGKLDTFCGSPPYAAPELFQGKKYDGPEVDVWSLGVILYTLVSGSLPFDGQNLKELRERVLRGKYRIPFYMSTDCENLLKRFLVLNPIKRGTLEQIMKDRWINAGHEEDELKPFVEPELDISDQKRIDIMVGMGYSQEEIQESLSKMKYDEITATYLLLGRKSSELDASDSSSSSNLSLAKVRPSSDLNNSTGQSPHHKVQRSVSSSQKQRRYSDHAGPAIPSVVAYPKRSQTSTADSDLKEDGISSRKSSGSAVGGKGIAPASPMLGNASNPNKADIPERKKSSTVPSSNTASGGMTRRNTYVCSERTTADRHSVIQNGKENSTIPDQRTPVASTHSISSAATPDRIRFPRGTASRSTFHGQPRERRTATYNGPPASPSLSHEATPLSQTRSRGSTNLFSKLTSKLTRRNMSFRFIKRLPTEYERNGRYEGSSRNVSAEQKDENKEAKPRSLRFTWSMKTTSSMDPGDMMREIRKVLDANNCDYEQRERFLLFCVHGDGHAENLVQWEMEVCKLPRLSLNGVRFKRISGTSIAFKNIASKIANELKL
The target of assay [12] is Protein kinase C delta type (Homo sapiens, UniProt Q05655). It counts as functional.
Assay [13] has as its target Mitogen-activated protein kinase 1 (Homo sapiens, UniProt P28482). In kind it is functional.
The target in assay [14] is Inhibitor of nuclear factor kappa-B kinase subunit alpha (Homo sapiens, UniProt O15111). It counts as functional.
Inhibitor of nuclear factor kappa-B kinase subunit alpha, sequence (O15111 whole entry): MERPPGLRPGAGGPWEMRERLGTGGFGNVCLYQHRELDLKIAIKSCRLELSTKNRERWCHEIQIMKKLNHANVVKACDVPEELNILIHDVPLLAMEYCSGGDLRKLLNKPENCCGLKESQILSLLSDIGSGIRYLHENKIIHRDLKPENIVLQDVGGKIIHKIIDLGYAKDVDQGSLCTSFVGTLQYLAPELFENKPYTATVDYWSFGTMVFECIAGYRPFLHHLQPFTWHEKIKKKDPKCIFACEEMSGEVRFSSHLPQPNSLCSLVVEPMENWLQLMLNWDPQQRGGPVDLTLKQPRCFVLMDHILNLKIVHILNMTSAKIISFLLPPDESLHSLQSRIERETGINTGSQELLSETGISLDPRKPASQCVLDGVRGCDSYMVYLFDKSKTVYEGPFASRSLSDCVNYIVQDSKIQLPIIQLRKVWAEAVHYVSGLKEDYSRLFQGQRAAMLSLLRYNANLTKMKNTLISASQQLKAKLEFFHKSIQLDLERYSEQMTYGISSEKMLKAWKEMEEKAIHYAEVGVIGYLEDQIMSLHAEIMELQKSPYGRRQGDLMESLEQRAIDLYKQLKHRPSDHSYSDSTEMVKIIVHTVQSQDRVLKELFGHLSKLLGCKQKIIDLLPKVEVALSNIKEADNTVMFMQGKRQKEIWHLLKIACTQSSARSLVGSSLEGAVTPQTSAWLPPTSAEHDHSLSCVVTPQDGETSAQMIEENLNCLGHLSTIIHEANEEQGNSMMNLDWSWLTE
The target of assay [15] is Mast/stem cell growth factor receptor Kit (Homo sapiens, UniProt P10721). It counts as functional.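 Note: KIT entry within a kinase panel assay.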
The target of assay [16] is Serine/threonine-protein kinase PLK3 (Homo sapiens, UniProt Q9H4B4). It counts as functional.
In a further assay the target is Ephrin type-A receptor 2 (Homo sapiens, UniProt P29317). In kind it is functional.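 Note: EPHA2 tested as one member of a kinome-wide kinase panel.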
Assay [17] addresses Fibroblast growth factor receptor 3 (Homo sapiens, UniProt P22607). It counts as functional.
For another assay, the target named is Insulin receptor (Homo sapiens, UniProt P06213). It counts as functional.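 Note: insulin receptor kinase tested as one member of a kinome-wide kinase panel.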
Assay [18] is described as follows: fluconazole-exposed Candida albicans growth modulators – fluorescence, retest, confirmation (AID 2467). It counts as functional, cell-based.
Another assay has as its target Phospholipase A2 (Homo sapiens, UniProt P04054). In kind it is functional.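 Note: confirmatory dose-response counterscreen on phospholipase A2, testing hits that came from an ultra-high-throughput screen for ATG4B inhibitors.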
For the next assay, the target named is Genome polyprotein (dengue virus type 2, UniProt P29990). Nature of the assay: flavivirus cap methylation enzyme inhibition – biochemical, confirmation dose response, primary screen (AID 588689). In kind it is functional.
Genome polyprotein, sequence (P29990 2492-3391 limits assumed): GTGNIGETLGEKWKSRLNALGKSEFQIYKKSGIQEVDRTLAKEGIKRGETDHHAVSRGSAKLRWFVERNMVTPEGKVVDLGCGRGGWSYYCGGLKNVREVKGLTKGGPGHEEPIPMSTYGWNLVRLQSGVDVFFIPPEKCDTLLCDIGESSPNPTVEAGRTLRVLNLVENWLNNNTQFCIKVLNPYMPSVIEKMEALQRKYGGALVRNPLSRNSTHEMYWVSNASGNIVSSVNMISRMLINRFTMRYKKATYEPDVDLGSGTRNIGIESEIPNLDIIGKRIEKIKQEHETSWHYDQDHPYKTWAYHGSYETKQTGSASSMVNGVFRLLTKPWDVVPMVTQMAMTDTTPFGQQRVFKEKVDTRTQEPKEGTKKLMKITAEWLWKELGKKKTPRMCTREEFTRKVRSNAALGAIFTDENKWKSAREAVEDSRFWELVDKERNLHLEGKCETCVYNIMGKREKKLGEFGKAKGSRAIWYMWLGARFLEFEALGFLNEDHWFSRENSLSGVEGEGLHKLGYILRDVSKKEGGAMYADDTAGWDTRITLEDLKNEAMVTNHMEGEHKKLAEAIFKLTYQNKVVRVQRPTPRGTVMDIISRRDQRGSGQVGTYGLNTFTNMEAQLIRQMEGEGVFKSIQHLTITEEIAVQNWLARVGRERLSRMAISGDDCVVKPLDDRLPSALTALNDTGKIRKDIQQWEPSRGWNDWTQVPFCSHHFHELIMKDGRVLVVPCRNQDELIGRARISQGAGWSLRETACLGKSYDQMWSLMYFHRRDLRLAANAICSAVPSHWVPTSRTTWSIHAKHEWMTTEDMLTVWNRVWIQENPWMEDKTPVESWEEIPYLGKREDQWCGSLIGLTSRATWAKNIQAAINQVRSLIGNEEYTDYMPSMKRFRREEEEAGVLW
The target of a further assay is T1, ORF 73 (Human herpesvirus 8, UniProt O40947).
T1 sequence (O40947 whole entry): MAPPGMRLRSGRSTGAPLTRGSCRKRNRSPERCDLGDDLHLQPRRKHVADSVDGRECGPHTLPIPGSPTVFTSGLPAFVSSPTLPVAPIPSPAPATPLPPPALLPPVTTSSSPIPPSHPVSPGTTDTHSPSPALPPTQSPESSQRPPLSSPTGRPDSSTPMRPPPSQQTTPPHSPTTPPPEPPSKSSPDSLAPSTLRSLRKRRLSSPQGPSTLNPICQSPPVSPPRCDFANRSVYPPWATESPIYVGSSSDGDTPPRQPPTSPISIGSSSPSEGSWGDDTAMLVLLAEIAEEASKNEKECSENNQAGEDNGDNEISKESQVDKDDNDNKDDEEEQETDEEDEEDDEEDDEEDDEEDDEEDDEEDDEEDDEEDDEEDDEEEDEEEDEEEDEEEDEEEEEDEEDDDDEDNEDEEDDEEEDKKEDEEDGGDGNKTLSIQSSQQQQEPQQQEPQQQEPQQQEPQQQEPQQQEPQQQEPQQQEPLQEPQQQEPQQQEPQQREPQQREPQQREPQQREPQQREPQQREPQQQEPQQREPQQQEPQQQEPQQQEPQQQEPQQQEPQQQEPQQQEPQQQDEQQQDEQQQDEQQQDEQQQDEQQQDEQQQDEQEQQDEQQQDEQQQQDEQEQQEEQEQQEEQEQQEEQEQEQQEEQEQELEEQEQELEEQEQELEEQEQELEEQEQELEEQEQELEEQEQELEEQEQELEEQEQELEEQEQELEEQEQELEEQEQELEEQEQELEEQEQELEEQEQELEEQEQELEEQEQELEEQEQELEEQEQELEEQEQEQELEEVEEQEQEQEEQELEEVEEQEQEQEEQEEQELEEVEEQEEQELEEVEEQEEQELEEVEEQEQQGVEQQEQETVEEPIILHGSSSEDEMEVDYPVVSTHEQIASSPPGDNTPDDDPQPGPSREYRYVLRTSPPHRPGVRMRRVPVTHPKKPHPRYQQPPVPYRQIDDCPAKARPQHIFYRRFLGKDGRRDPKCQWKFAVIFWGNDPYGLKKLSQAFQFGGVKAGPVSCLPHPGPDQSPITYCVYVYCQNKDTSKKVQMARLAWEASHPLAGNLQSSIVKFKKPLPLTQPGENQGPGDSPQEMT
The assay can be described thus: KSHV LANA DNA-binding disruption – biochemical, fluorescence polarization, cherry-picked samples, dose response (AID 504725).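 Note: fluorescence polarization of a labeled DNA duplex reporting LANA DNA binding; potency is for inhibitors that block LANA binding to the DNA.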 More on the design: species or system Human gammaherpesvirus 8. For orientation: In fluorescence polarisation assays a small probe gives low polarisation when free and higher when bound to something large.

Assay [19] concerns the target T2, Zinc finger protein mex-5 (Caenorhabditis elegans, UniProt Q9XUB2).
T2 sequence (Q9XUB2 whole entry): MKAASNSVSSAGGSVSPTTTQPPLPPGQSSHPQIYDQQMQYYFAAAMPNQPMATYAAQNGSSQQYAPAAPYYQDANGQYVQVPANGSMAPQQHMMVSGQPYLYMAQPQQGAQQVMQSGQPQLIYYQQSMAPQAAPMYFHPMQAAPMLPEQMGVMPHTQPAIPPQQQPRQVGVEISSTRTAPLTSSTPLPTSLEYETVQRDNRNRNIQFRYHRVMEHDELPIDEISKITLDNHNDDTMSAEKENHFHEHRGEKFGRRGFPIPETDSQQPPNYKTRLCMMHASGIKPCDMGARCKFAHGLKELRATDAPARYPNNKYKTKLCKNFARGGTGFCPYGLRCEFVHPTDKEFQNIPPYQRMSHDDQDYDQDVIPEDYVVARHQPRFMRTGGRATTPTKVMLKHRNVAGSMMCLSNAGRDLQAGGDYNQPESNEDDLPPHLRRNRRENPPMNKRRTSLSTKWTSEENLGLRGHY
The assay can be described thus: potency of MEX-5 RNA-binding blockers – biochemical, C. elegans, fluorescence polarization, dose response (AID 1960).

The source made the active and inactive calls.

cAMP-dependent protein kinase catalytic subunit PRKX, sequence (P51817 whole entry): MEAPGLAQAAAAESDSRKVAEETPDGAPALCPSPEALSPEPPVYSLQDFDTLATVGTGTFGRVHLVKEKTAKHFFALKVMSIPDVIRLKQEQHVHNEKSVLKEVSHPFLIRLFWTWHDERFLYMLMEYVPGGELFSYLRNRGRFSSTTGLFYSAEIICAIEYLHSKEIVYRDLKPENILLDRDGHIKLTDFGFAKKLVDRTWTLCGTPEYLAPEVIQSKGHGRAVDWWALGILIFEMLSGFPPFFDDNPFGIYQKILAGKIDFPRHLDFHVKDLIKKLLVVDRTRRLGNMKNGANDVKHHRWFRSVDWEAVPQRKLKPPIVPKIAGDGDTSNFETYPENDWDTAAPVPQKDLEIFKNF
Fibroblast growth factor receptor 3, sequence (P22607 whole entry): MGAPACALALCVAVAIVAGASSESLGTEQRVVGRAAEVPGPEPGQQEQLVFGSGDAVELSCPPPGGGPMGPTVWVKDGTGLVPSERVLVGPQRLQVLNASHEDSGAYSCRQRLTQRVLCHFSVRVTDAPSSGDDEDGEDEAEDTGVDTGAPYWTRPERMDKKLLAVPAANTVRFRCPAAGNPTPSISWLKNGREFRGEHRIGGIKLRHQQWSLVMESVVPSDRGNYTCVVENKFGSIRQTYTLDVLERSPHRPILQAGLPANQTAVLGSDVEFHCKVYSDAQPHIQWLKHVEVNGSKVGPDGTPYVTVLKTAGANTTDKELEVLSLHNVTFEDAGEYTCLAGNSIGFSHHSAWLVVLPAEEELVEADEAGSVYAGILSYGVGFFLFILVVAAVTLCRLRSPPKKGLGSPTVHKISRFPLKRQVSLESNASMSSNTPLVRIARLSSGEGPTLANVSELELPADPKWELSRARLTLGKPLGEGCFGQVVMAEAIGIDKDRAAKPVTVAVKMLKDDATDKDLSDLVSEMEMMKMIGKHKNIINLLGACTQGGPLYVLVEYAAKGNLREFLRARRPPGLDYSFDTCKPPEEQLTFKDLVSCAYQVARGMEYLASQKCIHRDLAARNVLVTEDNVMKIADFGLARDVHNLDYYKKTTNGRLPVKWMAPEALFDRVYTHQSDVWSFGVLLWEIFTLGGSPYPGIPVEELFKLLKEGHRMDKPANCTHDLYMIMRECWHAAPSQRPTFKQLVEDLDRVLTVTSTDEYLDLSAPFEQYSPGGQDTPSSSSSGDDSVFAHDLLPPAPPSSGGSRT

On to `Cc1cc(=O)[nH]nc1-c1ccc(NC(=O)Nc2cc(C(F)(F)F)ccc2F)c(Cl)c1`, for which the Ki in [1] is > 5.01 µM (inactive); in [2], > 2.51 µM (inactive); in [3] it was > 2.51 µM (inactive); in assay [4] it was > 3.98 µM (inactive); in [5], > 3.98 µM (inactive); in [6], > 3.98 µM (inactive). Further, the Ki was 0.00316 µM (active) in [7] and > 3.16 µM (inactive) in [8].
Regarding `CCOC(=O)c1cn(-c2ccc(O)cc2C)c2cc(-c3ccncc3)ccc2c1=O`, the Ki in assay [9] was > 7.94 µM (inactive); in assay [10] it was > 3.16 µM (inactive); in assay [11] it was > 6.31 µM (inactive); in assay [12], 0.501 µM (active); in assay [13] it was > 7.94 µM (inactive); in assay [14], > 3.98 µM (inactive). The Ki is > 1.26 µM (inactive) in assay [15]; > 7.94 µM (inactive) in assay [16]; > 3.16 µM (inactive) at Ephrin type-A receptor 2; > 2 µM (inactive) in assay [17]; > 5.01 µM (inactive) at Insulin receptor.
As to `O=C1C=C(NCc2ccccc2)c2ccccc2C1=O`, in assay [18], the concentration for a half-maximal effect (EC50) is 1.84 µM (active).
As for `O=C(O)c1[nH]c2ccccc2c1C(c1cc(Cl)cc([N+](=O)[O-])c1O)c1c(C(=O)O)[nH]c2ccccc12`, the 50% inhibitory concentration (IC50) at Phospholipase A2 is 9.04 µM (active); on Genome polyprotein, 9.77 µM (active). Moreover, on ORF 73, the AC50 is 88.1 µM (active). Also, in assay [19], the 50% effective concentration (EC50) is 9.16 µM (active).

By Ki is commonly meant a measure of affinity in units of concentration, obtained from inhibition or displacement. As a reminder, the EC50 is the concentration giving half of the maximal effect. For orientation: IC50 means the midpoint of a concentration-inhibition curve. By AC50 is commonly meant the concentration at which the activity in the assay is half-maximal.

For the origin of these results see ChEMBL document CHEMBL1201862, “PubChem BioAssay data set” (2004).
